According to patent US20130210167A1, “IMMUNOASSAY FOR PYRROLIDINOPHENONES” (RANDOX LABORATORIES LIMITED, priority 2012, published 2013):
Where a name gives a salt, the structure may show the parent alone. Read-outs that look alike come from different tables or passages of the source.

System: polyclonal antibody raised to Immunogen IV
Assay: Competitive biochip immunoassay of pyrrolidinophenones and potential cross-reactants (Evidence Investigator)
Format: binding, sheep
[1] = Table 2, further cross-reactivity results, competition with Hapten-A HRP conjugate

Molecule	% Cross-reactivity	other results
CNC(C)C(=O)c1ccc2c(c1)OCO2 (stereo not shown) [Methylone HCl]	<1%	
COc1ccc2c3c1O[C@H]1C(=O)CC[C@H]4[C@@H](C2)N(C)CC[C@]314 [Hydrocodone]	<1%	
CNC(C)C(=O)c1ccc(F)cc1.Cl (stereo not shown) [Flephedrone HCl]	<1%	
CCCC(C(=O)c1ccc(C)cc1)N1CCCC1 (racemic) [Pyrovalerone HCl, (RS)-1-(4-methylphenyl)-2-(1-pyrrolidinyl)pentan-1-one]	44.4%	
CCN(CC)C(=O)[C@@H]1C=C2c3cccc4[nH]cc(c34)C[C@H]2N(C)C1 [LSD]	<1%	
CC(C(=O)c1ccc2c(c1)OCO2)N1CCCC1.Cl (racemic) [(RS)-1-(Benzo[d][1,3]dioxol-5-yl)-2-(pyrrolidin-1-yl)propanone HCl]		% Cross-Reactivity: 12%
CCC(=O)C(CC(C)N(C)C)(c1ccccc1)c1ccccc1 (stereo not shown) [Methadone]	<1%	
C[C@H](N)Cc1ccccc1 [D-Amphetamine]		% Cross-Reactivity: <1%
CN1C(=O)CC[C@H]1c1cccnc1 [(−)-Cotinine]	<1%	
CCCC(C(=O)c1ccc2c(c1)OCO2)N1CCCC1.Cl (racemic) [(RS)-1-(Benzo[d][1,3]dioxol-5-yl)-2-(pyrrolidin-1-yl)pentanone HCl]	100%	% Cross-Reactivity: 100%
Cc1ccccc1-n1c(C)nc2ccccc2c1=O [Methaqualone]	<1%	
CCOC(=O)C1(c2ccccc2)CCNCC1 [Normeperidine]	<1%	
CN1CCN(C(=O)OC2c3nccnc3C(=O)N2c2ccc(Cl)cn2)CC1 (stereo not shown) [Zopiclone]	<1%	
Cl.c1ccc(C2(N3CCCCC3)CCCCC2)cc1 [1-(1-phenylcyclohexyl)piperidine) HCl]	<1%	
c1ccc(CN2CCNCC2)cc1 [1-Benzylpiperazine]		% Cross-Reactivity: <1%
Cc1ccc(-c2nc3ccc(C)cn3c2CC(=O)N(C)C)cc1 [Zolpidem tartrate]	<1%	
Cl.NC1(c2ccccc2Cl)CCCCC1=O (racemic) [(±)-Norketamine HCl]	<1%	
CN[C@@H](C)Cc1ccccc1 [Methamphetamine HCl]		% Cross-Reactivity: <1%
CN[C@@H](C)[C@@H](O)c1ccccc1.Cl [(+)-Pseudoephedrine HCl]		% Cross-Reactivity: <1%
CCCC(NC)C(=O)c1ccccc1.Cl (stereo not shown) [Pentedrone HCl]	<1%	
Cl.Clc1cccc(N2CCNCC2)c1 [1-(3-Chlorophenyl)piperazine HCl]		% Cross-Reactivity: <1%
CC(C)Cc1ccc(C(C)C(=O)O)cc1 (stereo not shown) [Ibuprofen]	<1%	
COC(=O)C(c1ccccc1)C1CCCCN1 (stereo not shown) [Methylphenidate HCl]	<1%	
(−)-Delta9-THC	<1%	

Molecule	% Cross-reactivity	other results
Cl.O=c1n(CCCN2CCN(c3cccc(Cl)c3)CC2)nc2ccccn12 [Trazadone HCl]	<1%	
CCCCCn1cc(C(=O)c2cccc3ccccc23)c2ccccc21 [JWH-018]		% Cross-Reactivity: <1%
CNC(C)Cc1ccc2c(c1)OCO2 (racemic) [(RS)-1-(Benzo[d][1,3]dioxol-5-yl)-N-methylpropan-2-amine]		% Cross-Reactivity: <1%
COc1cc(CC(C)N)cc(OC)c1OC.Cl (racemic) [(+/−)-3,4,5-Trimethoxyamphetamine hydrochloride]	<1%	
CCCC(C)(COC(N)=O)COC(N)=O [Meprobamate]	<1%	
CN1CCCC1c1cccnc1 (single isomer, unassigned; (-)) [(−)-Nicotine]	<1%	
CNCCC(Oc1ccc(C(F)(F)F)cc1)c1ccccc1 (stereo not shown) [Fluoxetine HCl]	<1%	
CC(=O)Oc1ccc2c3c1O[C@H]1[C@@H](OC(C)=O)C=C[C@H]4[C@@H](C2)N(C)CC[C@@]341 [Heroin]	<1%	
CCC(C(=O)c1ccc2c(c1)OCO2)N1CCCC1 (racemic) [(RS)-1-(Benzo[d][1,3]dioxol-5-yl)-2-(pyrrolidin-1-yl)butanone HCl]		% Cross-Reactivity: 192%
CCCCCn1cc(C(=O)Cc2ccccc2OC)c2ccccc21 [JWH-250]		% Cross-Reactivity: <1%
COc1cccc(C2(O)CCCCC2CN(C)C)c1 (stereo not shown) [Tramadol HCl]	<1%	
O=C(O)[C@H]1O[C@@H](OCC(Cl)(Cl)Cl)[C@H](O)[C@@H](O)[C@@H]1O [Urochloralic acid]		% Cross-reactivity [1]: <1%
CCCC(C(=O)c1ccc2ccccc2c1)N1CCCC1.Cl (racemic) [(RS)-1-(2-Naphthyl)-2-(pyrrolidin-l-yl)pentanone HCl]		% Cross-Reactivity: 44%
CNCCC=C1c2ccccc2CCc2ccccc21 [Nortriptyline HCl]	<1%	
COc1ccc2c(c1)[C@]13CCCC[C@@H]1[C@H](C2)N(C)CC3 [Dextromethorphan hydrobromide monohydrate]	<1%	
CCCC(NC)C(=O)c1ccc2c(c1)OCO2.Cl (stereo not shown) [Pentylone HCl]	17.4%	binding of antibodies of the invention (in words): able to bind
NCCc1ccccc1.O=S(=O)(O)O [Phenethylamine sulphate]	<1%	
O=C(O)c1ccccc1O [Salicylic acid]	<1%	
CCC(NC)C(=O)c1ccc2c(c1)OCO2.Cl (stereo not shown) [Butylone HCl]	11.4%	binding of antibodies of the invention (in words): able to bind
COC(=O)[C@@H]1C[C@H](OC(C)=O)C(=O)[C@H]2[C@@]1(C)CC[C@H]1C(=O)O[C@H](c3ccoc3)C[C@]21C [Salvinorin A]		% Cross-Reactivity: <1%
O=C(O)c1c[nH]c2ccccc12 [Indole-3-carboxylic acid]		% Cross-reactivity [1]: <1%
CC(=O)Nc1ccc(O)cc1 [Acetaminophen]	<1%	
O=C(CN1CCCC1)c1ccccc1 [1-Phenyl-2(1-pyrrolidinyl)ethanone]		% Cross-reactivity [1]: <1%
CCO[C@@H]1O[C@H](C(=O)O)[C@@H](O)[C@H](O)[C@H]1O [Ethyl-glucuronide]	<1%	

Molecule	% Cross-reactivity	other results
O=C(CCCN1CCC(O)(c2ccc(Cl)cc2)CC1)c1ccc(F)cc1 [Haloperidol]	<1%	
CCC(=O)OC(Cc1ccccc1)(c1ccccc1)C(C)CNC.O=C(O)/C=C\C(=O)O (single isomer, unassigned; (+)) [(+)-Norpropoxyphene maleate]	<1%	
CN[C@H]1CC[C@@H](c2ccc(Cl)c(Cl)c2)c2ccccc21 [Sertraline HCl]	<1%	
CC(N)Cc1ccc2c(c1)OCO2 (racemic) [(RS)-1-(benzo[d][1,3]dioxol-5-yl)propan-2-amine]		% Cross-Reactivity: <1%
Prolatine	<1%	
CC(NC(C)(C)C)C(=O)c1cccc(Cl)c1 (stereo not shown) [Bupropion HCl]	<1%	
CNC(C)C(=O)c1ccc(C)cc1 (stereo not shown) [Mephedrone HCl]		% Cross-Reactivity: <1%
CCN(C(C)=O)c1cccc(-c2ccnc3c(C#N)cnn23)c1 [Zaleplon]	<1%	
CCC(C(=O)c1ccc(C)cc1)N1CCCC1.Cl (racemic) [(RS)-1-(4-Methylphenyl)-2-(pyrrolidin-l-yl)butanone HCl]		% Cross-Reactivity: 34%
CCCCC(C(=O)c1ccc(C)cc1)N1CCCC1.Cl (racemic) [(RS)-1-(4-Methylphenyl)-2-(pyrrolidin-1-yl)hexanone HCl]	48.4%	
CCN(CC)C(C)C(=O)c1ccccc1 (stereo not shown) [Diethylpropion HCl]	<1%	
Dihydroxymephedrone HCl	<1%	
COc1cc(CCN)cc(OC)c1OC [Mescaline HCl]		% Cross-Reactivity: <1%
CN1C(=O)CN=C(c2ccccc2F)c2cc(N)ccc21 [7-NH Flunitrazepam]	<1%	
COc1ccc2c3c1O[C@H]1C(=O)CC[C@@]4(O)[C@@H](C2)N(C)CC[C@]314 [Oxycodone]	<1%	
(−)-11-nor-9-Carboxy-delta9-THC	<1%	
Cc1ccc(C(=O)C(C)N)cc1.Cl (stereo not shown) [Nor-mephedrone HCl]	<1%	
CN1CCN(Cc2ccccc2)CC1.Cl.O [1-Benzyl-4-methylpiperazine HCl monohydrate]	<1%	
Oc1ccccc1O [1,2 Dihydroxybenzene (Catechol), 1,2 Dihydroxybenzene]	<1%	
CNCCCC1(c2ccc(F)cc2)OCc2cc(C#N)ccc21 (stereo not shown) [Norescitalopram]	<1%	
O=C1Nc2ccc(Cl)cc2C(c2ccccc2Cl)=NC1O (stereo not shown) [Lorazepam]	<1%	
C=CCN(CC=C)CCc1c[nH]c2ccc(OC)cc12 [N,N-diallyl-5-methoxytryptamine]	<1%	
